This passage reports IC50 results from US20240415819A1, “MACROCYCLIC COMPOUNDS AS PROTEASOME SUBUNIT BETA TYPE-5 INHIBITORS” (Lead Discovery Center GmbH, priority 2021, published 2024).

One test concerns HT-29 cells. The test is described as follows: CellTiter-Glo luminescent cell viability assay with HT-29 cells (72h incubation). The class given is cell-based, human. To be noted: Homo sapiens, HT-29, HT29 cells, read-out: CTG HT29. On the procedure: Cell Titer Glo Viability Assay with HT-29 Cells (72h Incubation) The CellTiter-Glo Luminescent Cell Viability Assay (Promega) is a homogeneous method of determining the number of viable cells in culture. It is based on quantification of ATP, indicating the presence of metabolically active cells. On day 1 400 HT-29 cells per well are seeded in white 384well plates (Greiner, #781080) in 25 μl cell culture medium (DMEM (PAN-Biotech #P04-03590)+10% FCS+glutamine). After incubation for 24 h at 37° C./5% CO2 compounds or DMSO are added at different concentrations by Echo Liquid Handling Technology. Cells are further incubated in humidified chambers for 72 h at 37° C. and 5% CO2. Cells treated with the compound vehicle DMSO are used as positive controls and cells treated with 10 μM Staurosporine serve as negative controls. At day 5-72h after compound addition—the CellTiter Glo Reagent is prepared according to the instructions of the kit (Promega Inc.): Reagent is mixed 1:1 with cell culture medium. Thereon, mixture and assay plates are equilibrated at room temperature for 20 min. Equal volumes of the reagent-medium-mixture is added to the volume of culture medium present in each well. The plates are mixed at […] for 2 minutes on an orbital shaker. The microplates are then incubated at room temperature for 10 minutes for stabilization of the luminescent signal. Following incubation the luminescence is recorded on a Victor microplate reader (Perkin Elmer) using a 200 ms integration time. The data is then analyzed with Excel using the XLFIT Plugin (dose response Fit 205) for IC50-determination. As quality control the Z′-factor is calculated from 16 positive and negative control values. […] Inhibition is indicated as IC50 [nM] (“-”=not measured).

Test [1] has as its target T1, β5 subunit of the human constitutive proteasome (CPS) (Homo sapiens, UniProt P28074).
T1 construct: purchased Boston Biochem E-360
Nature of the test: β5 inhibition assay, human constitutive proteasome (Suc-LLVY-AMC). The note with it: IC50 class, Suc-LLVY-AMC substrate. The class given is biochemical. On the procedure: The enzymatic activity of the β5 subunit of the human constitutive proteasome (CPS) is analyzed. In another assay, which differs from the assay of the human constitutive proteasome only in using the human immunoproteasome (IPS) the enzymatic activity of the β5 subunit of the human immunoproteasome (IPS) is analyzed. […] Inhibition is indicated as IC50 [nM] (“-”=not measured).

Test [2] concerns the target T2, β5 subunit of the human immunoproteasome (IPS) (Homo sapiens, UniProt P28062).
T2 construct: purchased Boston Biochem E-370
Nature of the test: β5 inhibition assay, human immunoproteasome (Suc-LLVY-AMC). The class given is biochemical. To be noted: IC50 class, Suc-LLVY-AMC substrate. On the procedure:
The enzymatic activity of the β5 subunit of the human constitutive proteasome (CPS) is analyzed. In another assay, which differs from the assay of the human constitutive proteasome only in using the human immunoproteasome (IPS) the enzymatic activity of the β5 subunit of the human immunoproteasome (IPS) is analyzed. Incubation of the enzyme with its fluorogenic substrate Suc-LLVY-AMC leads to liberation of the fluorescent dye AMC which can be measured with a suitable plate reader. • 100 mM HEPES pH7.5 • 50 mM NaCl • 0.02% SDS • 1 mM DTT (add fresh) • Victor X5 (Perkin Elmer) • Label: Umbeliferone (0.1s) • Excitation wavelength: 355 nm • Emission wavelength: 460 nm • 4 μl human cPS or IPS enzyme in assay buffer (final assay concentration 1 nM) or 4 μl assay buffer for negative controls • Compound addition via acoustic dispenser (Echo 520, Labcyte) • Mix and incubate @ RT for 10 min • 4 μl Suc-LLVY-AMC substrate (final assay concentration 22.6 μM) • Mix and incubate @ RT for 4 h (dark) • Stop reaction with 4 μl Bortezomib (final assay concentration 1 μM) • 15 min @ RT • Measure (Excitation 355 nm; Emission 460 nm)

Test [3] deals with A549 (human lung carcinoma cell line). The test is described as follows: Glo assay of A549 cells (Table 3; ProteasomeGlo plating scheme). It counts as cell-based. To be noted: Homo sapiens; A549 cells; read-out: PGLo A549. The source says:
Inhibition is indicated as IC50 [nM] (“-”=not measured). […] • Chymotrypsin-Like Cell-Based Proteasome-GloTM Assay (Promega; […]) • Cell culture 384-well plates (Greiner BioOne; 781080) • Dispensing cassette, MultiDrop Standard tube dispensing cassette (Thermo Scientific; 24072670) • DPBS (Pan BioTech; P04-36500) • Cell culture 384-well plates (Greiner BioOne; 781080) • CPD source plate: diamond-shape plate (Labcyte; LP-0200) • Intermediate plate (Labcyte; P-05525) [table] • a. Remove the plates with cells from the incubator. • b. Take all the plates including the compound plate, intermediate plate and Staurosporine plate to the ECHO. • c. Click on “Open” in the ECHO software and select the protocol “QLI5_25ul_30 uM-Grenier”. • d. Follow the on-screen prompts and instructions once you click “Start” to insert the compound plate, intermediate plate and destination plates. • e. Change the final number of destination plates on the program. • f. Follow the on-screen prompts and instructions once you click “Start” to load the Staurosporine and destination plates. • g. Once all the compounds, DMSO and Staurosporine have been transferred, place the destination plates in a wet tissue box. • h. Place the destination plates back into the incubator and incubate at 37° C., 5% CO2 for 105 minutes. • i. Re-seal all the compound+Stauro diamond and intermediate plates and store in the dark. Chymotrypsin like ProteasomeGlo Assay • 1. Thaw the components of the ProteasomeGlo assay at room temperature including the ProteasomeGlo Buffer, the lyophilized Luciferin Detection Reagent and the Suc-LLVY-Glo Substrate. • 2. Reconstitute the Luciferin Detection Reagent in the amber coloured bottle by adding 50 ml of the ProteasomeGlo Buffer. • 3. Vortex the Suc-LLVY-Glo Substrate briefly to reconstitute the Substrate well. • 4. Spin down the Substrate and add 250 μl of the Substrate to the reconstituted Luciferin Detection Reagent from step 2. • 5. Briefly vortex the amber bottle with the mix to prepare a homogenous solution. • 6. Place the mix prepared in step 5 to sit at room temperature for 60 minutes. • 7. After 60 minutes, pipette 25 μl of the mix from step 5 into all wells with the cells. • 8. Shake the plates for 2-5 minutes to ensure the complete mixing of the ProteasomeGlo reagent with the cells. • 9. Leave the plates in the dark for 10-15 minutes. • 10. Measure the luminescence read-out using the Viktor and the protocol “Luminescence_384Well_0.2 sec”. (Note: The Protoeasome-GloTM Reagent (combined Proteasome-GloTM Substrate, Proteasome-GloTM Buffer and Luciferin Detection Reagent) can be stored at 4° C. or -20° C. for 1 month with minimal loss of activity.)

`Cc1ccc2cc1CNC(=O)[C@H](CCc1ccccc1)NC(=O)CCCCCC(=O)N1CCCC(CCO2)C1` (stereo partly drawn) [Compound 22, (9S)-5^4-methyl-9-phenethyl-4-oxa-7,10-diaza-1(3,1)-piperidina-5(1,3)-benzenacycloheptadecaphane-8,11,17-trione]: in the test on HT-29 cells, the IC50 lay within 1000 to 5000 nM.

Regarding `CCNC(=O)N[C@H]1CC(=O)N2CCCC(CCOc3ccc(C)c(c3)CNC(=O)[C@H](CCc3ccccc3)NC1=O)C2` (stereo partly drawn) [Compound 38, 1-ethyl-3-((9S,12S)-5^4-methyl-8,11,14-trioxo-9-phenethyl-4-oxa-7,10-diaza-1(3,1)-piperidina-5(1,3)-benzenacyclotetradecaphane-12-yl)urea], the IC50 in the test on HT-29 cells was below 100 nM.

Regarding `Cc1ccc2cc1CNC(=O)[C@H](CCc1ccccc1)NC(=O)[C@@H](NC(=O)c1cccnc1)CC(=O)N1CCCC(CCO2)C1` (stereo partly drawn) [Compound 41, N-((9S,12S)-5^4-methyl-8,11,14-trioxo-9-phenethyl-4-oxa-7,10-diaza-1(3,1)-piperidina-5(1,3)-benzenacyclotetradecaphane-12-yl)nicotinamide], in the test on HT-29 cells, the IC50 is below 100 nM.

In the case of `Cc1ccc2cc1CNC(=O)[C@H](CCc1ccccc1)NC(=O)[C@@H](NS(=O)(=O)CCCc1ccccc1)CC(=O)N1CCCC(CCO2)C1` (stereo partly drawn) [Compound 44, N-((9S,12S)-5^4-methyl-8,11,14-trioxo-9-phenethyl-4-oxa-7,10-diaza-1(3,1)-piperidina-5(1,3)-benzenacyclotetradecaphane-12-yl)-3-phenyloropane-1-sulfonamide], the IC50 in the test with HT-29 cells was below 100 nM.

`Cc1ccc2cc1CNC(=O)[C@H](CCc1ccccc1)NC(=O)[C@@H](NC(=O)Cc1cccc(Cl)c1)CC(=O)N1CCCC(CCO2)C1` (stereo partly drawn) [Compound 61, 2-(3-chlorophenyl)-N-((9S,12S)-54-methyl-8,11,14-trioxo-9-phenethyl-4-oxa-7,10-diaza-1(3,1)-piperidina-5(1,3)-benzenacyclotetradecaphane-12-yl)acetamide]: the IC50 in the test with HT-29 cells is below 100 nM.

Turning to `Cc1cccc(CC(=O)N[C@H]2CC(=O)N3CCCC(CCOc4ccc(C)c(c4)CNC(=O)[C@H](CCc4ccccc4)NC2=O)C3)c1` (stereo partly drawn) [Compound 62, N-((9S,12S)-5^4-methyl-8,11,14-trioxo-9-phenethyl-4-oxa-7,10-diaza-1(3,1)-piperidina-5(1,3)-benzenacyclotetradecaphane-12-yl)-2-(m-tolyl)acetamide], the IC50 in the test on HT-29 cells is below 100 nM.

Regarding `Cc1ccc2cc1CNC(=O)C(CCc1cnccn1)NC(=O)[C@@H](NC(=O)[C@@H](C)c1ccccc1)CC(=O)N1CCCC(CCO2)C1` (stereo partly drawn) [Compound 107, (2S)—N-((12S)-5^4-methyl-8,11,14-trioxo-9-(2-(pyrazin-2-yl)ethyl)-4-oxa-7,10-diaza-1(3,1)-piperidina-5(1,3)-benzenacyclotetradecaphane-12-yl)-2-phenylpropanamide], the IC50 with HT-29 cells is below 100 nM.

`CCC1(C(=O)N[C@H]2CC(=O)N3CCCC(CCOc4ccc(C)c(c4)CNC(=O)[C@H](CCc4ccccc4)NC2=O)C3)CCNCC1` (stereo partly drawn) [Compound 151, 4-ethyl-N-((9S,12S)-5^4-methyl-8,11,14-trioxo-9-phenethyl-4-oxa-7,10-diaza-1(3,1)-piperidina-5(1,3)-benzenacyclotetradecaphane-12-yl)piperidine-4-carboxamide]: the IC50 in the test on HT-29 cells was below 100 nM.

As for `Cc1ccc2cc1CNC(=O)[C@H](CCc1ccccc1)NC(=O)[C@@H](NC(=O)Cc1ccc(N)cc1)CC(=O)N1CCC[C@H](CCO2)C1` [Compound 172, 2-(4-aminophenyl)-N-((13R,9S,12S)-5^4-methyl-8,11,14-trioxo-9-phenethyl-4-oxa-7,10-diaza-1(3,1)-piperidina-5(1,3)-benzenacyclotetradecaphane-12-yl)acetamide], the IC50 in the test with HT-29 cells was below 100 nM.

Turning to `Cc1ccc2cc1CNC(=O)[C@H](CCc1ccccc1)NC(=O)[C@@H](NC(=O)Cc1ccc(N)cc1)CC(=O)N1CCC[C@@H](CCO2)C1` [Compound 173, 2-(4-aminophenyl)-N-((13S,9S,12S)-5^4-methyl-8,11,14-trioxo-9-phenethyl-4-oxa-7,10-diaza-1(3,1)-piperidina-5(1,3)-benzenacyclotetradecaphane-12-yl)acetamide], the IC50 in the test on HT-29 cells was in the range of 100 to 500 nM.

For `CC(=O)N[C@H]1CC(=O)NCCOc2ccc(C)c(c2)CNC(=O)[C@H](CCc2ccccc2)NC1=O` [Compound 252, N-((8S,11S)-1^4-methyl-6,9,12-trioxo-11-phenethyl-2-oxa-5,10,13-triaza-1(1,3)-benzenacyclotetradecaphane-8-yl)acetamide], the IC50 with HT-29 cells was 100 to 500 nM.

`CC(=O)N[C@H]1CC(=O)N2CCC(CC2)Oc2ccc(C)c(c2)CNC(=O)[C@H](CCc2ccccc2)NC1=O` [Compound 254, N-((7S,10S)-3^4-methyl-6,9,12-trioxo-7-phenethyl-2-oxa-5,8-diaza-1(4,1)-piperidina-3(1,3)-benzenacyclododecaphane-10-yl)acetamide]: in the test on HT-29 cells, the IC50 lay within 100 to 500 nM.

`Cc1ccc2cc1CNC(=O)[C@H](CCc1ccccc1)NC(=O)[C@@H](NC(=O)CCNC(=O)C1CCC3(CCOCC3)CC1)CC(=O)N1CCCC(CCO2)C1` (some centres unmarked) [Compound 576]: the IC50 in test [1] and in test [2] was below 100 nM in each case.

In the case of `Cc1ccc2cc1CNC(=O)[C@H](CCc1ccccc1)NC(=O)[C@@H](NC(=O)CCOCCCC1CCCC1)CC(=O)N1CCCC(CCO2)C1` (stereo partly drawn) [Compound 620, 3-(3-cyclopentylpropoxy)-N-((9S,12S)-5^4-methyl-8,11,14-trioxo-9-phenethyl-4-oxa-7,10-diaza-1(3,1)-piperidina-5(1,3)-benzenacyclotetradecaphane-12-yl)propanamide], the IC50 in test [1], in test [2] and in test [3] was below 100 nM in each case.
